Test results from patent US11104648B2, “Pyrazole derivative” (Zhejiang Research Institute of Chemical Industry Co., Ltd., priority 2018, dated 2021).
Where two headings read alike, the source gives them in different places.

Experiments:
Format in all cases: in vivo
[1] = tested on: Eggs of Tetranychus Cinnabarinus; test: Activity assay of eggs of Tetranychus cinnabarinus (spray method, ovicidal); details: Tetranychus cinnabarinus, read-out: ovicidal activity
Method: According to the solubility of the test compound, the crude drug was dissolved in N N-dimethylformamide, and then prepared into a test solution of the desired concentration with 1‰ Tween 80 aqueous solution. The content of N. N-dimethylformamide in the solution should not exceed 10%.
Spray method. The broad bean leaves with petioles were cut and inserted into a bottle with water. A certain number of female mites were placed, 24h later, adult mites were removed, and spray treatment was performed in 24 h. The experiment was repeated three times, and a blank control was set, and placed to an observation room (26±2° C., humidity 70%˜80%, 16h light per day) for culture. When the blank control group was incubated, the results were investigated. The non-incubated ones were used as death for investigation.

[2] = tested on: adult Tetranychus cinnabarinus; test: Activity assay of adult Tetranychus cinnabarinus (whole-plant spray on bean seedlings); details: 48 h, read-out: adult mite-killing activity
Method: According to the solubility of the test compound, the crude drug was dissolved in N, N-dimethlfornamide, and then prepared into a test solution of the desired concentration with 1‰ Tween 80 aqueous solution. The content of N,N-dimethylformamide in the solution should not exceed 10%.
Two euphylla bean seedlings were taken, after inoculated with adult Tetranychus cinnabarinus and the base number was investigated, whole plants were sprayed with a hand-held sprayer. The experiment was repeated three times for each treatment, after treatment, placed in a standard observation room after treatment, to investigate the survival number of mites in 48 hand calculate the death rate.

[3] = tested on: Tetranychus cinnabarinus Nymphs; test: Activity assay of Tetranychus cinnabarinus nymphs (spray on broad bean leaves)
Method: According to the solubility of the test compound, the crude drug was dissolved in N, N-dimethylformamide, and then prepared into a test solution of the desired concentration with 1‰ Tween 80 aqueous solution. The content of N,N-dimethylformamide in the solution should not exceed 10%.
The broad bean leaves with petioles were cut and inserted into a small bottle with water. A certain number of brightly colored, active female adult mites were placed, 24h later, adult mites were removed, and leaves with insufficient eggs were removed. When eggs were hatched and grew into nymphs, spray treatment was performed. The experiment was repeated three times, and a blank control was set, and placed to an observation room (26±2° C., humidity 70%˜80%, 16h light per day) for culture. 48 h later, the results were investigated. The nymphs were gently touched during investigation, and if no response, they were regarded as deaths.

[4] = concentration 5 mg/L, spray, non-incubated eggs counted as dead
[5] = 48 h, concentration 2.5 mg/L, read-out: nymph-killing activity
[6] = 48 h, read-out: nymph-killing activity
[7] = concentration 2.5 mg/L, 48 h, read-out: nymph-killing activity

Row | SMILES | pest or weed control at 5 µg/mL [1, 4] [%] | pest or weed control at 2.5 µg/mL ([2]; concentration 2.5 mg/L) [%] | pest or weed control at 2.5 µg/mL [3, 5] [%] | pest or weed control at 5 µg/mL [1] [%] | pest or weed control at 2.5 µg/mL [2] [%] | pest or weed control at 2.5 µg/mL [3, 6] [%] | pest or weed control at 2.5 µg/mL [3, 7] [%]
1 | CCC(=O)OC(C)O/C(=C(/C#N)c1ccc(C(C)(C)C)cc1)c1c(Cl)c(C)nn1C (stereo not drawn) [Compound 102] | ≥ 90 | ≥ 90 | ≥ 95 |  |  |  | 
2 | CCCC(=O)OC(C)O/C(=C(/C#N)c1ccc(C(C)(C)C)cc1)c1c(Cl)c(C)nn1C (stereo not drawn) [Compound 103] | ≥ 90 | ≥ 90 | ≥ 95 |  |  |  | 
3 | Cc1nn(C)c(/C(OC(C)OC(=O)C(C)C)=C(\C#N)c2ccc(C(C)(C)C)cc2)c1Cl (stereo not drawn) [Compound 104] | ≥ 90 | ≥ 90 | ≥ 95 |  |  |  | 
4 | CCCCC(=O)OC(C)O/C(=C(/C#N)c1ccc(C(C)(C)C)cc1)c1c(Cl)c(C)nn1C (stereo not drawn) [Compound 106] | ≥ 90 | ≥ 90 | ≥ 95 |  |  |  | 
5 | Cc1nn(C)c(/C(OC(C)OC(=O)CC(C)C)=C(\C#N)c2ccc(C(C)(C)C)cc2)c1Cl (stereo not drawn) [Compound 107] | ≥ 90 | ≥ 90 | ≥ 95 |  |  |  | 
6 | COCC(=O)OC(C)O/C(=C(/C#N)c1ccc(C(C)(C)C)cc1)c1c(Cl)c(C)nn1C (stereo not drawn) [Compound 108] | ≥ 90 | ≥ 90 | ≥ 95 |  |  |  | 
7 | Cc1nn(C)c(/C(OC(C)OC(=O)C2CC2)=C(\C#N)c2ccc(C(C)(C)C)cc2)c1Cl (stereo not drawn) [Compound 109] | ≥ 90 | ≥ 90 | ≥ 95 |  |  |  | 
8 | CSCC(=O)OC(C)O/C(=C(/C#N)c1ccc(C(C)(C)C)cc1)c1c(Cl)c(C)nn1C (stereo not drawn) [Compound 110] | ≥ 90 | ≥ 90 | ≥ 95 |  |  |  | 
9 | Cc1nn(C)c(/C(OC(C)OC(=O)C2CCCCC2)=C(\C#N)c2ccc(C(C)(C)C)cc2)c1Cl (stereo not drawn) [Compound 111] | ≥ 90 | ≥ 90 | ≥ 95 |  |  |  | 
10 | Cc1nn(C)c(/C(OC(C)OC(=O)CF)=C(\C#N)c2ccc(C(C)(C)C)cc2)c1Cl (stereo not drawn) [Compound 112] |  |  |  | ≥ 90 | ≥ 90 | ≥ 95 | 
11 | Cc1nn(C)c(/C(OC(C)OC(=O)C(F)(F)F)=C(\C#N)c2ccc(C(C)(C)C)cc2)c1Cl (stereo not drawn) [Compound 113] | ≥ 90 | ≥ 90 | ≥ 95 |  |  |  | 
12 | Cc1nn(C)c(/C(OC(C)OC(=O)c2ccccc2)=C(\C#N)c2ccc(C(C)(C)C)cc2)c1Cl (stereo not drawn) [Compound 114] | ≥ 90 | ≥ 90 | ≥ 95 |  |  |  | 
13 | Cc1nn(C)c(/C(OC(C)OC(=O)Cc2ccccc2)=C(\C#N)c2ccc(C(C)(C)C)cc2)c1Cl (stereo not drawn) [Compound 115] | ≥ 90 | ≥ 90 |  |  |  |  | ≥ 95
14 | CCC(C)(C)C(=O)OC(C)O/C(=C(/C#N)c1ccc(C(C)(C)C)cc1)c1c(Cl)c(C)nn1C (stereo not drawn) [Compound 116] | ≥ 90 | ≥ 90 | ≥ 95 |  |  |  | 
15 | C=CC(=O)OC(C)O/C(=C(/C#N)c1ccc(C(C)(C)C)cc1)c1c(Cl)c(C)nn1C (stereo not drawn) [Compound 117] | ≥ 90 | ≥ 90 | ≥ 95 |  |  |  | 
16 | CC(=O)OCO/C(=C(/C#N)c1ccc(C(C)(C)C)cc1)c1c(C)c(C)nn1C [Compound 151] | ≥ 90 | ≥ 90 | ≥ 95 |  |  |  | 
17 | CCC(=O)OCO/C(=C(/C#N)c1ccc(C(C)(C)C)cc1)c1c(C)c(C)nn1C [Compound 152] | ≥ 90 | ≥ 90 | ≥ 95 |  |  |  | 

Row | SMILES | pest or weed control at 5 µg/mL [1, 4] [%] | pest or weed control at 2.5 µg/mL ([2]; concentration 2.5 mg/L) [%] | pest or weed control at 2.5 µg/mL [3, 5] [%] | pest or weed control at 5 µg/mL [1] [%] | pest or weed control at 2.5 µg/mL [2] [%] | pest or weed control at 2.5 µg/mL [3, 6] [%] | pest or weed control at 2.5 µg/mL [3, 7] [%]
18 | CCCC(=O)OCO/C(=C(/C#N)c1ccc(C(C)(C)C)cc1)c1c(C)c(C)nn1C [Compound 153] | ≥ 90 | ≥ 90 | ≥ 95 |  |  |  | 
19 | Cc1nn(C)c(/C(OCOC(=O)C(C)C)=C(\C#N)c2ccc(C(C)(C)C)cc2)c1C [Compound 154] | ≥ 90 | ≥ 90 | ≥ 95 |  |  |  | 
20 | Cc1nn(C)c(/C(OCOC(=O)C(C)(C)C)=C(\C#N)c2ccc(C(C)(C)C)cc2)c1C [Compound 155] | ≥ 90 | ≥ 90 | ≥ 95 |  |  |  | 
21 | CCCCC(=O)OCO/C(=C(/C#N)c1ccc(C(C)(C)C)cc1)c1c(C)c(C)nn1C [Compound 156] | ≥ 90 | ≥ 90 | ≥ 95 |  |  |  | 
22 | Cc1nn(C)c(/C(OCOC(=O)CC(C)C)=C(\C#N)c2ccc(C(C)(C)C)cc2)c1C [Compound 157] | ≥ 90 | ≥ 90 | ≥ 95 |  |  |  | 
23 | COCC(=O)OCO/C(=C(/C#N)c1ccc(C(C)(C)C)cc1)c1c(C)c(C)nn1C [Compound 158] | ≥ 90 | ≥ 90 | ≥ 95 |  |  |  | 
24 | Cc1nn(C)c(/C(OCOC(=O)C2CC2)=C(\C#N)c2ccc(C(C)(C)C)cc2)c1C [Compound 159] | ≥ 90 | ≥ 90 | ≥ 95 |  |  |  | 
25 | CSCC(=O)OCO/C(=C(/C#N)c1ccc(C(C)(C)C)cc1)c1c(C)c(C)nn1C [Compound 160] | ≥ 90 | ≥ 90 | ≥ 95 |  |  |  | 
26 | Cc1nn(C)c(/C(OCOC(=O)C2CCCCC2)=C(\C#N)c2ccc(C(C)(C)C)cc2)c1C [Compound 161] | ≥ 90 | ≥ 90 | ≥ 95 |  |  |  | 
27 | Cc1nn(C)c(/C(OCOC(=O)CF)=C(\C#N)c2ccc(C(C)(C)C)cc2)c1C [Compound 162] |  |  |  | ≥ 90 | ≥ 90 | ≥ 95 | 
28 | Cc1nn(C)c(/C(OCOC(=O)C(F)(F)F)=C(\C#N)c2ccc(C(C)(C)C)cc2)c1C [Compound 163] | ≥ 90 | ≥ 90 | ≥ 95 |  |  |  | 
29 | Cc1nn(C)c(/C(OCOC(=O)c2ccccc2)=C(\C#N)c2ccc(C(C)(C)C)cc2)c1C [Compound 164] | ≥ 90 | ≥ 90 | ≥ 95 |  |  |  | 
30 | Cc1nn(C)c(/C(OCOC(=O)Cc2ccccc2)=C(\C#N)c2ccc(C(C)(C)C)cc2)c1C [Compound 165] | ≥ 90 | ≥ 90 |  |  |  |  | ≥ 95
31 | CCC(C)(C)C(=O)OCO/C(=C(/C#N)c1ccc(C(C)(C)C)cc1)c1c(C)c(C)nn1C [Compound 166] | ≥ 90 | ≥ 90 | ≥ 95 |  |  |  | 
32 | C=CC(=O)OCO/C(=C(/C#N)c1ccc(C(C)(C)C)cc1)c1c(C)c(C)nn1C [Compound 167] | ≥ 90 | ≥ 90 | ≥ 95 |  |  |  | 
33 | CC(=O)OC(C)O/C(=C(/C#N)c1ccc(C(C)(C)C)cc1)c1c(C)c(C)nn1C (stereo not drawn) [Compound 176] | ≥ 90 | ≥ 90 | ≥ 95 |  |  |  | 
